pIC50: −log10 of the molar value.
How the values were obtained:
[1] = test system: T. cruzi amastigote (Td Tomato-modified) in Vero cells; assay: In vitro IC50 measurement of T. cruzi amastigote killing using Td Tomato-modified T. cruzi; assay type: cell-based; details: Trypanosoma cruzi, 72 h, fluorescence, read-out: IC50: I Org. amastigote Growth T. cruzi 3 d
Description: Example 254. In Vitro IC50 Measurement of T. cruzi Amastigote Killing Using Td Tomato-Modified T. cruzi
The T. cruzi parasites used in this assay were genetically modified to express Td Tomato fluorescent protein. Vero cells (African green monkey kidney epithelial cells) were harvested from continuous cultures using trypsin and added to the inner 60 wells of 96-well Greiner Bio One plates (plate catalog #655090) at 200 ul/well of […]. Cells were allowed to adhere for 1 h before infection with T. cruzi. T. cruzi for infection were harvested from previously-infected Vero cells, washed, pelleted and resuspended at 5×10^6/mL. 50 uL of parasites were added to each well containing Vero cells. Compounds were prepared from 5 mM stock concentrations in DMSO to final concentrations in wells ranging from 5 uM to 5 nM. Wells were provided for negative controls, lacking compounds. Plates were placed into a 37° C. incubator for 20 min, then a “Day 0” reading was taken on a Synergy H4 plate reader to record initial fluorescence levels, at 544 (excitation) and 612 nm (emission). 96-well plates were placed in Tupperware containers with wet paper towels and incubated at 37° C. incubator for 72 h. After 72 h plates were reread (Day 3 reading) and data analyzed using Excel and/or Graphpad software. Day 0 fluorescence was subtracted from Day 3 to remove input parasite fluorescence. Growth curves are generated and 50% and 90% inhibitory concentrations are determined by nonlinear regression analysis.

[2] = test system: IL3000 T. congolense (drug sensitive) strain; assay: In vitro Alamar Blue 72 h drug sensitivity assay for T. congolense; assay type: cell-based, Trypanosoma congolense; details: Trypanosoma congolense, 72 h, bloodstream form, 69 h + 3 h Resazurin, 34° C., read-out: IC50: I Org. Growth T. congolense 3 d
Description: Example 252. In Vitro Alamar Blue 72 h Drug Sensitivity Assay for T. congolense
Compounds were tested in vitro for chemotherapeutic potency against the IL3000 T. congolense (drug sensitive) strain, using the Alamar Blue assay with several modifications. Test compounds were prepared as 10 mg/mL DMSO stocks for each assay run. Compounds were assayed in at least three separate, independent test runs and an 11-point dilution curve was used to determine the IC50 values. Bloodstream form trypanosomes were supported in HMI media containing 20% bovine serum and were incubated with test compounds for 69 h at 34° C. in a humidified atmosphere containing 5% CO2. Thereafter, 10 μL of Resazurin dye (12.5 mg in 100 mL of phosphate buffered saline, Sigma-Aldrich, Buchs, Switzerland) were added for an additional 3 h. Plates were then read using a fluorescent plate reader (Spectramax, Gemini XS, Bucher Biotec, Basel, Switzerland) using an excitation wavelength of 536 nm and an emission wavelength of 588 nm. Data points were averaged to generate sigmoidal dose-response curves and IC50 values were determined using Softmax Pro 5.2 software.

Compound | pIC50 [1] | pIC50 [2]
CC(C)(C)[C@H](NC(=O)c1ccc2c(c1)B(O)OC2)C(=O)OCc1ccccc1 [Example 6-017, Benzyl (S)-2-(1-hydroxy-1,3-dihydrobenzo[c][1,2]oxaborole-6-carboxamido)-3,3-dimethylbutanoate] | ≤ 6.00 | 5.30 to 8.00
CC(C)[C@H](NC(=O)c1ccc2c(c1)B(O)OC2)C(=O)O[C@H](C)c1ccccc1 [Example 6-020, (R)-1-Phenylethyl (1-hydroxy-1,3-dihydrobenzo[c][1,2]oxaborole-6-carbonyl)-L-valinate] | ≤ 6.00 | 5.30 to 8.00
CC(C)[C@H](NC(=O)c1ccc2c(c1)B(O)OC2)C(=O)O[C@@H](C)c1ccccc1 [Example 6-023, (S)-1-Phenylethyl (1-hydroxy-1,3-dihydrobenzo[c][1,2]oxaborole-6-carbonyl)-L-valinate] | ≤ 6.00 | 5.30 to 8.00
CC(C)[C@H](NC(=O)c1ccc2c(c1)B(O)OC2)C(=O)OCc1ccc(F)cc1 [Example 6-030, 4-Fluorobenzyl (1-hydroxy-1,3-dihydrobenzo[c][1,2]oxaborole-6-carbonyl)-L-valinate] | 6.00 to 7.68 | 8.00 to 9.29
CC(C)[C@H](NC(=O)c1ccc2c(c1)B(O)OC2(C)C)C(=O)OCc1ccc(F)cc1 [Example 6-033, 4-Fluorobenzyl (1-hydroxy-3,3-dimethyl-1,3-dihydrobenzo[c][1,2]oxaborole-6-carbonyl)-L-valinate] | ≤ 6.00 | 5.30 to 8.00
CC(C)[C@H](NC(=O)c1ccc2c(c1F)B(O)OC2)C(=O)OCc1ccccc1 [Example 6-035, Benzyl (7-fluoro-1-hydroxy-1,3-dihydrobenzo[c][1,2]oxaborole-6-carbonyl)-L-valinate] | ≤ 6.00 | 5.30 to 8.00
CC(C)[C@H](NC(=O)c1ccc2c(c1F)B(O)OC2)C(=O)OCc1ccc(F)cc1 [Example 6-036, 4-Fluorobenzyl (7-fluoro-1-hydroxy-1,3-dihydrobenzo[c][1,2]oxaborole-6-carbonyl)-L-valinate] | 6.00 to 7.68 | 5.30 to 8.00
Cc1c(C(=O)N[C@H](C(=O)OCc2ccccc2)C(C)C)ccc2c1B(O)OC2 [Example 6-038, Benzyl (1-hydroxy-7-methyl-1,3-dihydrobenzo[c][1,2]oxaborole-6-carbonyl)-L-valinate] | ≥ 7.70 | > 9.30
Cc1c(C(=O)N[C@H](C(=O)OCc2ccc(Cl)cc2)C(C)C)ccc2c1B(O)OC2 [Example 6-040, 4-Chlorobenzyl (1-hydroxy-7-methyl-1,3-dihydrobenzo[c][1,2]oxaborole-6-carbonyl)-L-valinate] | ≥ 7.70 | > 9.30
Cc1c(C(=O)N[C@H](C(=O)OCc2ccc(C(F)(F)F)cc2)C(C)C)ccc2c1B(O)OC2 [Example 6-041, 4-Trifluoromethylbenzyl (1-hydroxy-7-methyl-1,3-dihydrobenzo[c][1,2]oxaborole-6-carbonyl)-L-valinate] | ≥ 7.70 | > 9.30
Cc1c(C(=O)N[C@H](C(=O)OCc2cccc(Cl)c2)C(C)C)ccc2c1B(O)OC2 [Example 6-043, 3-Chlorobenzyl (1-hydroxy-7-methyl-1,3-dihydrobenzo[c][1,2]oxaborole-6-carbonyl)-L-valinate] | ≥ 7.70 | > 9.30
Cc1c(C(=O)N[C@H](C(=O)OCc2ccc(C#N)cc2)C(C)C)ccc2c1B(O)OC2 [Example 6-044, 4-Cyanobenzyl (1-hydroxy-7-methyl-1,3-dihydrobenzo[c][1,2]oxaborole-6-carbonyl)-L-valinate] | ≥ 7.70 | > 9.30
Cc1c(C(=O)N[C@H](C(=O)OCc2cccc(C(F)(F)F)c2)C(C)C)ccc2c1B(O)OC2 [Example 6-046, 3-Trifluoromethylbenzyl (1-hydroxy-7-methyl-1,3-dihydrobenzo[c][1,2]oxaborole-6-carbonyl)-L-valinate] | ≥ 7.70 | > 9.30
Cc1c(C(=O)N[C@H](C(=O)OCc2cccc(C#N)c2)C(C)C)ccc2c1B(O)OC2 [Example 6-047, 3-Cyanobenzyl (1-hydroxy-7-methyl-1,3-dihydrobenzo[c][1,2]oxaborole-6-carbonyl)-L-valinate] | ≥ 7.70 | > 9.30
Cc1c(C(=O)N[C@H](C(=O)OCc2ccc(F)c(C(F)(F)F)c2)C(C)C)ccc2c1B(O)OC2 [Example 6-049, 4-Fluoro-3-(trifluoromethyl)benzyl (1-hydroxy-7-methyl-1,3-dihydrobenzo[c][1,2]oxaborole-6-carbonyl)-L-valinate] | ≥ 7.70 | > 9.30
Cc1c(C(=O)N[C@H](C(=O)OCc2ccc(F)cc2)C2CC2)ccc2c1B(O)OC2 [Example 6-050, 4-Fluorobenzyl (S)-2-cyclopropyl-2-(1-hydroxy-7-methyl-1,3-dihydrobenzo[c][1,2]oxaborole-6-carboxamido)acetate] | 6.00 to 7.68 | > 9.30
CCc1c(C(=O)N[C@H](C(=O)OCc2ccccc2)C(C)C)ccc2c1B(O)OC2 [Example 6-053, Benzyl (7-ethyl-1-hydroxy-1,3-dihydrobenzo[c][1,2]oxaborole-6-carbonyl)-L-valinate] | 6.00 to 7.68 | > 9.30
Cc1c(C(=O)N[C@H](C(=O)OCc2ccc(OC(F)(F)F)cc2)C(C)C)ccc2c1B(O)OC2 [Example 6-054, 4-Trifluoromethoxybenzyl (1-hydroxy-7-methyl-1,3-dihydrobenzo[c][1,2]oxaborole-6-carbonyl)-L-valinate] | ≥ 7.70 | > 9.30
Cc1c(C(=O)N[C@H](C(=O)OCc2cccc(OC(F)(F)F)c2)C(C)C)ccc2c1B(O)OC2 [Example 6-055, 3-Trifluoromethoxybenzyl (1-hydroxy-7-methyl-1,3-dihydrobenzo[c][1,2]oxaborole-6-carbonyl)-L-valinate] | ≥ 7.70 | > 9.30
Cc1c(C(=O)N[C@H](C(=O)OCc2ccc(S(C)(=O)=O)cc2)C(C)C)ccc2c1B(O)OC2 [Example 6-056, 4-(Methylsulfonyl)benzyl (1-hydroxy-7-methyl-1,3-dihydrobenzo[c][1,2]oxaborole-6-carbonyl)-L-valinate] | 6.00 to 7.68 | 8.00 to 9.29
CC(C)[C@H](NC(=O)c1ccc2c(c1C1CC1)B(O)OC2)C(=O)OCc1ccccc1 [Example 6-058, Benzyl (7-cyclopropyl-1-hydroxy-1,3-dihydrobenzo[c][1,2]oxaborole-6-carbonyl)-L-valinate] | ≤ 6.00 | > 9.30
Cc1c(C(=O)N[C@H](C(=O)OCc2ccc(F)cc2)C2CCC2)ccc2c1B(O)OC2 [Example 6-059, 4-Fluorobenzyl (S)-2-cyclobutyl-2-(1-hydroxy-7-methyl-1,3-dihydrobenzo[c][1,2]oxaborole-6-carboxamido)acetate] | 6.00 to 7.68 | 8.00 to 9.29
Cc1c(C(=O)N[C@H](C(=O)OCc2ccc(F)cc2)C2CCCC2)ccc2c1B(O)OC2 [Example 6-060, 4-Fluorobenzyl (S)-2-cyclopentyl-2-(1-hydroxy-7-methyl-1,3-dihydrobenzo[c][1,2]oxaborole-6-carboxamido)acetate] | 6.00 to 7.68 | 8.00 to 9.29
Cc1c(C(=O)N[C@H](C(=O)OCc2ccc(F)cc2)C(C)C)ccc2c1B(O)OC2C (stereo partly drawn) [Example 6-061, 4-Fluorobenzyl (3,7-dimethyl-1-hydroxy-1,3-dihydrobenzo[c][1,2]oxaborole-6-carbonyl)-L-valinate] | 6.00 to 7.68 | 8.00 to 9.29
CC(C)c1c(C(=O)N[C@H](C(=O)OCc2ccccc2)C(C)C)ccc2c1B(O)OC2 [Example 6-063, Benzyl (1-hydroxy-7-isopropyl-1,3-dihydrobenzo[c][1,2]oxaborole-6-carbonyl)-L-valinate] | ≤ 6.00 | 8.00 to 9.29
CCCc1c(C(=O)N[C@H](C(=O)OCc2ccccc2)C(C)C)ccc2c1B(O)OC2 [Example 6-065, Benzyl (1-hydroxy-7-propyl-1,3-dihydrobenzo[c][1,2]oxaborole-6-carbonyl)-L-valinate] | 6.00 to 7.68 | 8.00 to 9.29
Cc1c(C(=O)NC2(C(=O)OCc3ccc(F)cc3)CCC2)ccc2c1B(O)OC2 [Example 6-066, 4-Fluorobenzyl 1-(1-hydroxy-7-methyl-1,3-dihydrobenzo[c][1,2]oxaborole-6-carboxamido)cyclobutane-1-carboxylate] | ≥ 7.70 | > 9.30
